# Data as given in patent publication US12187709B2 (Genentech, Inc., priority 2021, dated 2025).
# How the values were obtained:
# Cbl-b = Cbl-b (Homo sapiens (Human), UniProt Q13191); experiment: Cbl-b LCK Ub TR-FRET assay (Cbl-b Lck HTRF); assay type: biochemical; settings: for IC50: Cbl-b LCK Ub TR-FRET; for (fold-selectivity) Cbl-b and C-Cbl Selectivity / fold-selectivity (Cbl-b over C-cbl): ratio C-cbl Lck HTRF IC50 / Cbl-b Lck HTRF IC50
# Experimental: (§1) 6 μL of detection mixture was added to all wells and briefly centrifuged before incubating for 20 min at room temperature. […] IC50 was generated using no LCK as the low control and DMSO as the high control.
# c-Cbl = c-Cbl (Homo sapiens (Human), UniProt P22681); experiment: C-Cbl LCK Ub TR-FRET assay (C-cbl Lck HTRF); assay type: biochemical
# Chain of c-Cbl (P22681 47-435): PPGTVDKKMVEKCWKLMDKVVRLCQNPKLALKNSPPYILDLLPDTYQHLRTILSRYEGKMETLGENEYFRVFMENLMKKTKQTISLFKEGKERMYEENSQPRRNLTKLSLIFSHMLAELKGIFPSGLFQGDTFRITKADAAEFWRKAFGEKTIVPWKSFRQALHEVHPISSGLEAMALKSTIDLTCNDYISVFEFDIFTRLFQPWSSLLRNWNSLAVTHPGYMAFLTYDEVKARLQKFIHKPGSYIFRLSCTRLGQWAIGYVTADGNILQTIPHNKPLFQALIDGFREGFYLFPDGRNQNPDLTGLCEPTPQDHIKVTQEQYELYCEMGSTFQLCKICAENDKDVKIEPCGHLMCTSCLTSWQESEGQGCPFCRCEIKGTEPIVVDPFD
# Experimental: as §1
# Chain of Cbl-b (Q13191 40-426): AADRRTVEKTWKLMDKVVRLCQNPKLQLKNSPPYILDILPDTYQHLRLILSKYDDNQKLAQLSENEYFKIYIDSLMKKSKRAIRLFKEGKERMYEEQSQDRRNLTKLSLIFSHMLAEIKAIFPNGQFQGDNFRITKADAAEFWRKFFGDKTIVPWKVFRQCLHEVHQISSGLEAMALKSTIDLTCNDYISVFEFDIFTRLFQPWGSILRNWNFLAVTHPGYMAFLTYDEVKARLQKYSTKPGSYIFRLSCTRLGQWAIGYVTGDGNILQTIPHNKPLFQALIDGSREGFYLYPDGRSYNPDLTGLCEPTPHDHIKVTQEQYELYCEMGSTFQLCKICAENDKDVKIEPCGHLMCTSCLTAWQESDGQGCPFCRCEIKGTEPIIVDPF
SMILES,IC50 (Cbl-b; Example 121) [nM],(fold-selectivity) Cbl-b and C-Cbl Selectivity (Cbl-b) [x],IC50 (c-Cbl) [nM],IC50 (Cbl-b) [nM],fold-selectivity (Cbl-b over C-cbl) (Cbl-b)
"Cn1cnnc1[C@](O)(c1ccccc1)c1cccc(N2Cc3c(Cl)cc(CNC4(C)CCC4)cc3C2=O)c1 (single isomer, unassigned) [Compound 411]",≥ 20000,1.0,20000,,
"Cn1cnnc1[C@]1(c2cccc(N3Cc4c(cc(CNC5(C)CCC5)cc4C(F)(F)F)C3=O)c2)C[C@](F)(CF)C1 [Compound 105, 2-(3-((1r,3r)-3-fluoro-3-(fluoromethyl)-1-(4-methyl-4H-1,2,4-triazol-3-yl)cyclobutyl)phenyl)-6-(((1-methylcyclobutyl)amino)methyl)-4-(trifluoromethyl)isoindolin-1-one]",,,54,15,3.7x
"CCOc1cc([C@]2(c3nncn3C)C[C@@H](C)C2)cc(N2Cc3c(cc(CNC4(C)CCC4)cc3C(F)(F)F)C2=O)n1 [Compound 3, 2-(6-ethoxy-4-((1s,3s)-3-methyl-1-(4-methyl-4H-1,2,4-triazol-3-yl)cyclobutyl)pyridin-2-yl)-6-(((1-methylcyclobutyl)amino)methyl)-4-(trifluoromethyl)isoindolin-1-one]",,,2.5,3.6,(0.69x)
"Cc1cc([C@H](c2nncn2C)C2COC2)cc(N2Cc3c(cc(CNC4(C)CCC4)cc3C(F)(F)F)C2=O)c1 (single isomer, unassigned) [Compound 332]",,,20000,16000,1.3x
"C[C@@H](NC1(C)CCC1)c1cc2c(c(C(F)F)c1)CN(c1cccc([C@@H](c3nncn3C)C3COC3)c1)C2=O (single isomer, unassigned) [Compound 406]",9900,2.0,20000,,
"C[C@@H](NC1CCC1)c1cc2c(c(C(F)(F)F)c1)CN(c1cccc(C3(c4nncn4C)CC(F)(F)C3)c1)C2=O (single isomer, unassigned) [Compound 38]",,,32,11,(2.9x)
"Cn1cnnc1[C@@](F)(c1ccccc1)c1cccc(N2Cc3c(cc(CNC4(C)CCC4)cc3C(F)(F)F)C2=O)c1 (single isomer, unassigned) [Compound 157]",,,20000,≥ 20000,1.0 x
"Cn1cnnc1[C@@]1(c2cccc(N3Cc4c(cc(CNC5(C)CCC5)cc4C(F)(F)F)C3=O)c2)CCC(F)(F)C1 (single isomer, unassigned) [Compound 106]",,,81,23,3.5x
"CCOc1cc([C@]2(c3nncn3C)C[C@@H](OC)C2)cc(N2Cc3c(cc(CNC4(C)CCC4)cc3C(F)(F)F)C2=O)n1 [Compound 76, 2-(6-ethoxy-4-((1S,3S)-3-methoxy-1-(4-methyl-4H-1,2,4-triazol-3-yl)cyclobutyl)pyridin-2-yl)-6-(((1-methylcyclobutyl)amino)methyl)-4-(trifluoromethyl)isoindolin-1-one]",,,6.4,6.4,(1.0x)
"CC(C)[C@H]1CN(C)CCN1Cc1cc2c(c(C(F)(F)F)c1)CN(c1cccc([C@@H](c3nncn3C)C3COC3)c1)C2=O (single isomer, unassigned) [Compound 10]",,,24,12,(2.0x)
Cn1cnnc1C1(c2cccc(N3Cc4c(cc(CNC5(C)CCC5)cc4C(F)(F)F)C3=O)c2)CC2(CCC2)C1 [Compound 40],,,28,8.9,(3.2x)
"Cn1cnnc1[C@H](c1cccc(N2Cc3c(cc([C@@H](NC4(C)CCC4)C4CCC4)cc3C(F)(F)F)C2=O)c1)C1COC1 (single isomer, unassigned) [Compound 435]",8500,2.4,20000,,
"Cn1cnnc1[C@H](c1cccc(N2Cc3c(cc(CNC4(C)CCC4)cc3C(F)F)C2=O)c1)C1COC1 [Compound 304, (S)-4-(difluoromethyl)-2-(3-((4-methyl-4H-1,2,4-triazol-3-yl)(oxetan-3-yl)methyl)phenyl)-6-(((1-methylcyclobutyl)amino)methyl)isoindolin-1-one]",,,20000,7800,2.6x
"Cn1cnnc1C1(c2cccc(N3Cc4c(cc(CNC5(C)CCC5)cc4C(F)(F)F)C3=O)c2)CC2(CC(O)C2)C1 (stereo not drawn) [Compound 93, 2-(3-(6-hydroxy-2-(4-methyl-4H-1,2,4-triazol-3-yl)spiro[3.3]heptan-2-yl)phenyl)-6-(((1-methylcyclobutyl)amino)methyl)-4-(trifluoromethyl)isoindolin-1-one]",,,900,120,7.3x
"Cc1cc(C2(c3nncn3C)CC(F)(F)C2)cc(N2Cc3c(cc(CNC4(C)CCC4)cc3C(F)(F)F)C2=O)n1 [Compound 60, 2-(4-(3,3-difluoro-1-(4-methyl-4H-1,2,4-triazol-3-yl)cyclobutyl)-6-methylpyridin-2-yl)-6-(((1-methylcyclobutyl)amino)methyl)-4-(trifluoromethyl)isoindolin-1-one]",,,80,110,(0.73x)
"Cn1cnnc1[C@]1(c2cccc(N3Cc4c(cc(CNC5(C)CCC5)cc4C(F)(F)F)C3=O)c2)C[C@@H]([S@@+](C)[O-])C1 (single isomer, unassigned) [Compound 163]",,,20000,≥ 20000,1.0x
"Cn1cnnc1[C@H](CC1CCS(=O)(=O)CC1)c1cccc(N2Cc3c(cc(CNC4(C)CCC4)cc3C(F)(F)F)C2=O)c1 [Compound 286, (R)-2-(3-(2-(1,1-dioxidotetrahydro-2H-thiopyran-4-yl)-1-(4-methyl-4H-1,2,4-triazol-3-yl)ethyl)phenyl)-6-(((1-methylcyclobutyl)amino)methyl)-4-(trifluoromethyl)isoindolin-1-one]",,,20000,≥ 20000,1.0x
"CO[C@H]1C[C@@](c2cc(OC3CCCC3)nc(N3Cc4c(cc(CNC5(C)CCC5)cc4C(F)(F)F)C3=O)c2)(c2nncn2C)C1 [Compound 78, 2-(6-(cyclopentyloxy)-4-((1S,3S)-3-methoxy-1-(4-methyl-4H-1,2,4-triazol-3-yl)cyclobutyl)pyriidn-2-yl)-6-(((1-methylcyclobutyl)amino)methyl)-4-(trifluoromethyl)isoindolin-1-one]",,,70,14,(5.0x)
"C[C@@H](NC1(C)CCC1)c1cc2c(c(C(F)(F)F)c1)CN(c1cccc([C@@H](c3nncn3C)C3COC3)c1)C2=O [Compound 443, 2-(3-((S)-(4-methyl-4H-1,2,4-triazol-3-yl)(oxetan-3-yl)methyl)phenyl)-6-((R)-1-((1-methylcyclobutyl)amino)ethyl)-4-(trifluoromethyl)isoindolin-1-one]",3300,1.7,5700,,

# Results, then the molecule that gave them:
IC50 (Cbl-b; Example 121) [nM],(fold-selectivity) Cbl-b and C-Cbl Selectivity (Cbl-b) [x],IC50 (c-Cbl) [nM],IC50 (Cbl-b) [nM],fold-selectivity (Cbl-b over C-cbl) (Cbl-b),SMILES
,,860,850,1.0x,"CC[C@](O)(c1cccc(N2Cc3c(cc(CNC4(C)CCC4)cc3C(F)(F)F)C2=O)c1)c1nncn1C (single isomer, unassigned) [Compound 391]"
,,410,290,(1.4x),"Cn1cnnc1[C@H](OC1CC1)c1cccc(N2Cc3c(cc(CNC4(C)CCC4)cc3C(F)(F)F)C2=O)c1 (single isomer, unassigned) [Compound 45]"
,,34,23,1.5x,"Cn1cnnc1[C@@H](c1cccc(N2Cc3c(cc(CNC4(C)CCC4)cc3C(F)(F)F)C2=O)c1)[C@@H]1CCOC1 [Compound 168, 2-(3-((R)-(4-methyl-4H-1,2,4-triazol-3-yl)((S)-tetrahydrofuran-3-yl)methyl)phenyl)-6-(((1-methylcyclobutyl)amino)methyl)-4-(trifluoromethyl)isoindolin-1-one]"
,,140,120,1.1x,"Cn1cnnc1[C@@H](CC1CCOCC1)c1cccc(N2Cc3c(cc(CNC4(C)CCC4)cc3C(F)(F)F)C2=O)c1 [Compound 253, (S)-2-(3-(1-(4-methyl-4H-1,2,4-triazol-3-yl)-2-(tetrahydro-2H-pyran-4-yl)ethyl)phenyl)-6-(((1-methylcyclobutyl)amino)methyl)-4-(trifluoromethyl)isoindolin-1-one]"
,,560,470,(1.2x),"CO[C@@H](c1cccc(N2Cc3c(cc(CNC4(C)CCC4)cc3C(F)(F)F)C2=O)c1)c1nncn1C (single isomer, unassigned) [Compound 43]"
,,580,70,8.3x,"Cn1cnnc1C(c1cccc(N2Cc3c(cc(CNC4(C)CCC4)cc3C(F)(F)F)C2=O)c1)[C@H]1C[C@@H](Cl)C1 (single isomer, unassigned) [Compound 354]"
,,13000,8500,1.6 x,"CC(=O)N1CC([C@H](c2cccc(N3Cc4c(cc(CNC5(C)CCC5)cc4C(F)(F)F)C3=O)c2)c2nncn2C)C1 (single isomer, unassigned) [Compound 401]"
,,10000,4200,(2.4x),"Cn1cnnc1[C@@H](OC1CC1)c1cccc(N2Cc3c(cc(CNC4(C)CCC4)cc3C(F)(F)F)C2=O)c1 (single isomer, unassigned) [Compound 44]"
,,6400,4000,1.6x,"CO[C@H]1C[C@](O)(C(c2cccc(N3Cc4c(cc(CNC5(C)CCC5)cc4C(F)(F)F)C3=O)c2)c2nncn2C)C1 (single isomer, unassigned) [Compound 368]"
